Laboratory results: ChEMBL document CHEMBL5380876, “Non-fused imidazole-biphenyl analogs repress triple-negative breast cancer growth by mainly stabilizing the c-MYC G-quadruplex via a multi-site binding mode” (Bioorg Med Chem, 2023)
The source made the active and inactive calls. No cut-off for these calls is given here.

Assays:
MDA-MB-231 [1] = experiment: Inhibition of cell migration in human MDA-MB-231 cells assessed as reduction in migration at 1 to 4 uM measured after 24 to 48 hrs by wound healing assay; assay type: functional, cell-based; conditions: dose 1-4 µM, time 24-48 hrs
MDA-MB-231 [2] = experiment: Cytotoxicity against human MDA-MB-231 cells assessed as inhibition of cell growth at 0 to 20 uM incubated for 24 hrs by CCK-8 assay; assay type: functional, cell-based; conditions: MDA-MB-231, 24 h
MDA-MB-231 [3] = experiment: Cytotoxicity against human MDA-MB-231 cells assessed as inhibition of cell growth at 0 to 20 uM incubated for 72 hrs by CCK-8 assay; assay type: functional, cell-based; conditions: MDA-MB-231, 72 h
A549 = experiment: Cytotoxicity against human A549 cells assessed as reduction in cell viability by CCK8 assay; assay type: functional, cell-based
MDA-MB-231 [4] = experiment: Induction of cell cycle arrest in human MDA-MB-231 cells assessed as accumulation of cells at G0/G1 phase at 4 uM incubated for 24 hrs by propidium iodide staining based flow cytometry analysis (reference value: 66.35%); assay type: functional
MDA-MB-231 [5] = experiment: Induction of cell cycle arrest in human MDA-MB-231 cells assessed as accumulation of cells at sub-G1 phase at 1 uM incubated for 24 hrs by propidium iodide staining based flow cytometry analysis (reference value: 0.57%); assay type: functional
Quadruplex DNA [6] = experiment: Stabilization of c-Myc G4 quadruplex DNA (unknown origin) assessed as temperature at which 50% protein unfold by circular dichroism melting assay; assay type: nucleic-acid assay
MDA-MB-231 [7] = experiment: Induction of cell cycle arrest in human MDA-MB-231 cells assessed as accumulation of cells at G2/M phase at 2 uM incubated for 24 hrs by propidium iodide staining based flow cytometry analysis (reference value: 17.58%); assay type: functional
MDA-MB-231 [8] = experiment: Downregulation of c-MYC protein expression in human MDA-MB-231 cells at 1 to 4 uM measured after 24 hrs by Western blot analysis; assay type: functional, cell-based; conditions: dose 1-4 µM
Quadruplex DNA [9] = experiment: Stabilization of c-MYC G4 quadruplex DNA HRAS (unknown origin) assessed as change in temperature at which 50% protein unfold by circular dichroism melting assay
[10] = Toxicity in BALB/c mouse xenografted with human MDA-MB-231 cells assessed as effect on lung at 5 mg/kg, ip administered every other day for 20 days and measured every 4 days; assay type: organism-based; conditions: in vivo, 480 h, time 20 day
MDA-MB-231 [11] = experiment: Induction of cell cycle arrest in human MDA-MB-231 cells assessed as accumulation of cells at sub-G1 phase at 2 uM incubated for 24 hrs by propidium iodide staining based flow cytometry analysis (reference value: 0.57%); assay type: functional
[12] = Toxicity in BALB/c mouse xenografted with human MDA-MB-231 cells assessed as effect on body weight at 5 mg/kg, ip administered every other day for 20 days and measured every 4 days; assay type: organism-based; conditions: in vivo, 480 h, time 20 day
MDA-MB-231 [13] = experiment: Induction of cell cycle arrest in human MDA-MB-231 cells assessed as accumulation of cells at G2/M phase at 1 uM incubated for 24 hrs by propidium iodide staining based flow cytometry analysis (reference value: 17.58%); assay type: functional
MDA-MB-231 [14] = experiment: Induction of cell cycle arrest in human MDA-MB-231 cells assessed as accumulation of cells at S phase at 4 uM incubated for 24 hrs by propidium iodide staining based flow cytometry analysis (reference value: 15.50%); assay type: functional
MDA-MB-231 [15] = experiment: Induction of cell cycle arrest in human MDA-MB-231 cells assessed as downregulation of Cdc2 expression at 1 to 4 uM incubated for 24 hrs by Western blot analysis; assay type: functional, cell-based; conditions: dose 1-4 µM
Quadruplex DNA [16] = experiment: Stabilization of c-MYC G4 quadruplex DNA KRAS (unknown origin) assessed as shift in temperature at which 50% protein unfold by circular dichroism melting assay
MDA-MB-231 [17] = experiment: Induction of apoptosis in human MDA-MB-231 cells assessed as caspase-9 cleavage at 1 to 4 uM incubated for 24 hrs by Western blot analysis; assay type: functional, cell-based; conditions: dose 1-4 µM
MDA-MB-231 [18] = experiment: Induction of apoptosis in human MDA-MB-231 cells assessed as PARP cleavage at 1 to 4 uM incubated for 24 hrs by Western blot analysis; assay type: functional, cell-based; conditions: dose 1-4 µM
MDA-MB-231 [19] = experiment: Upregulation of phosphorylated Chk2 in human MDA-MB-231 cells at 1 to 4 uM measured after 24 hrs by Western blot analysis; assay type: functional, cell-based; conditions: dose 1-4 µM
MDA-MB-231 [20] = experiment: Cytotoxicity against human MDA-MB-231 cells assessed as inhibition of cell growth at 0 to 20 uM incubated for 48 hrs by CCK-8 assay; assay type: functional, cell-based; conditions: MDA-MB-231, 48 h
MDA-MB-231 [21] = experiment: Induction of DNA damage in human MDA-MB-231 cells assessed as increase in gamma-H2AX fluorescence intensity at 4 uM measured after 24 hrs by immunofluorescence analysis; assay type: functional, cell-based
MDA-MB-231 [22] = experiment: Induction of autophagy in human MDA-MB-231 cells assessed as increase in fluorescence intensity of LC3B in cytoplasm at 4 uM measured after 24 hrs by immunofluorescence based analysis; assay type: functional, cell-based
MDA-MB-231 [23] = experiment: Inhibition of colony formation in human MDA-MB-231 cells assessed as reduction in number of visible cell colonies at 0.1 to 0.4 uM measured after 14 days by crystal violet based staining analysis; assay type: functional; conditions: dose 0.1-0.4 µM, time 14.0 day
MDA-MB-231 [24] = experiment: Cytotoxicity against human MDA-MB-231 cells assessed as reduction in cell viability by CCK8 assay; assay type: functional, cell-based
HCC1806 = experiment: Cytotoxicity against human HCC1806 cells assessed as reduction in cell viability by CCK8 assay; assay type: functional, cell-based
MDA-MB-231 [25] = experiment: Induction of cell cycle arrest in human MDA-MB-231 cells assessed as accumulation of cells at S phase at 2 uM incubated for 24 hrs by propidium iodide staining based flow cytometry analysis (reference value: 15.50%); assay type: functional
[26] = Cytotoxicity against human MCF-10A cells assessed as reduction in cell viability by CCK8 assay; assay type: toxicity, cell-based
MDA-MB-231 [27] = experiment: Cytotoxicity against human MDA-MB-231 cells assessed as reduction in cell viability at 0 to 20 uM by CCK-8 assay; assay type: functional, cell-based; conditions: dose 0-20 µM, time 24-72 hrs, TDE = time-dependent effect
MDA-MB-231 [28] = experiment: Downregulation of c-MYC expression in human MDA-MB-231 cells measured after 24 hrs by RT-PCR analysis; assay type: functional, cell-based; conditions: dose 1-4 µM
HeLa = experiment: Cytotoxicity against human HeLa cells assessed as reduction in cell viability by CCK8 assay; assay type: functional, cell-based
MDA-MB-231 [29] = experiment: Induction of cell cycle arrest in human MDA-MB-231 cells assessed as accumulation of cells at G0/G1 phase at 1 uM incubated for 24 hrs by propidium iodide staining based flow cytometry analysis (reference value: 66.35%); assay type: functional
[30] = Toxicity in BALB/c mouse xenografted with human MDA-MB-231 cells assessed as pain at 5 mg/kg, ip administered every other day for 20 days and measured every 4 days; assay type: organism-based; conditions: in vivo, 480 h, time 20 day
MDA-MB-231 [31] = experiment: Induction of apoptosis in human MDA-MB-231 cells assessed as increase in early apoptotic cells at 1 to 4 uM incubated for 24 hrs by Annexin-V FITC/PI double staining based flow cytometry analysis; assay type: functional, cell-based; conditions: dose 1-4 µM
Quadruplex DNA [32] = experiment: Stabilization of G4 quadruplex telomeric22 DNA (unknown origin) assessed as change in melting temperature by circular dichroism melting assay

Structure (SMILES): CN1CCN(c2ccc(-c3nc(-c4ccc(-c5ccc(C(F)(F)F)cc5)cc4)[nH]c3-c3ccc(N4CCN(C)CC4)cc3)cc2)CC1
- inhibition (MDA-MB-231 [1]): Active
- IC50 (MDA-MB-231 [2]): 1840 nM
- IC50 (MDA-MB-231 [3]): 660 nM
- IC50 (A549): 1260 nM
- Activity (MDA-MB-231 [4]): 18.23%
- Activity (MDA-MB-231 [5]): 0.66%
- T (Quadruplex DNA [6]): 34.6 °C
- Activity (MDA-MB-231 [7]): 11.35%
- Activity (MDA-MB-231 [8]): Active
- ΔTm (Quadruplex DNA [9]): 7.1 °C
- Activity [10]: Non-Toxic
- Activity (MDA-MB-231 [11]): 0.68%
- Activity [12]: Non-Toxic
- Activity (MDA-MB-231 [13]): 13.49%
- Activity (MDA-MB-231 [14]): 6.09%
- Activity (MDA-MB-231 [15]): Active
- ΔTm (Quadruplex DNA [16]): 11.2 °C
- Activity (MDA-MB-231 [17]): Active
- Activity (MDA-MB-231 [18]): Active
- Activity (MDA-MB-231 [19]): Active
- IC50 (MDA-MB-231 [20]): 870 nM
- Activity (MDA-MB-231 [21]): Active
- Activity (MDA-MB-231 [22]): Active
- inhibition (MDA-MB-231 [23]): Active
- IC50 (MDA-MB-231 [24]): 1840 nM
- IC50 (HCC1806): 1490 nM
- Activity (MDA-MB-231 [25]): 11.56%
- IC50 [26]: 8770 nM
- Activity (MDA-MB-231 [27]): Tde
- Activity (MDA-MB-231 [28]): Dose-Dependent Effect
- IC50 (HeLa): 2690 nM
- Activity (MDA-MB-231 [29]): 74.71%
- Activity [30]: Non-Toxic
- Activity (MDA-MB-231 [31]): Active
- ΔTm (Quadruplex DNA [32]): 0 °C
